As usually defined, the Ki is the dissociation constant of the complex between target and ligand, obtained from inhibition or displacement.

The structures appear in SMILES notation.

The results in this text go back to patent US20040023953A1, “Tricylic mercaptomethyl-substituted 2,3-dihydro-quinazolin-5-ones and 2,3-dihydro-benzo-[1,2,4]-thiadiazin-5,5-dioxides as matrix metalloproteinase (MMP) inhibitors” (priority 2000, published 2004).

Format in all cases: biochemical
Experiment [1] addresses T1, MT1-MMP (recombinant catalytic domain of MMP-14) (Homo sapiens, UniProt P50281).
T1 construct: recombinant catalytic domain of MMP-14
The experiment can be described thus: Quantitative fluorescence assay, inhibition of MT1-MMP. The following applies: for Ki: DIXON method. An excerpt: In particular when used as medicaments, specific inhibitors would only influence the desired target enzymes but not disturb the balanced interplay of the other MMPs, thus helping to avoid possible undesired side-effects.
(§1) Quantitative Fluorescence Assay for Matrix Metalloproteinases
(§2) The fluorescent group Mca is separated from the internal quencher Dpa by enzymatic cleavage of the synthetic substrate Mca-Pro-Leu-Gly-Leu-Dpa-Ala-Arg-NH2 using the respective collagenase. This is accompanied by a great increase in fluorescence in the measuring batch, which can be quantified using a fluorimeter (λex 328 nm, λem 393 nm) and proceeds linearly within the first few minutes. A certain specificity of the test to matrix metalloproteinases follows from the amino acid sequence-Pro-Leu-Gly-Leu-in the substrate, on the one hand, and from the select incubation conditions, on the other hand. Matrix metalloproteinases cleave the substrate at the Gly-Leu bond. The proteolytic residual activity of pre-incubated batches of enzyme and inhibitor is measured, the substrate and enzyme concentrations having been kept constant and the inhibitor concentration having been varied. Three series of measurements using a different substrate concentration were made for each tested inhibitor. The enzyme activity is calculated in fluorescence units per min. on the basis of the time-sensitive fluorescence increase. The Ki values were determined graphically according to the DIXON method (1953) by applying the reciprocal reaction rate 1/v (y axis) against inhibitor concentration (x axis).
(§3) Inhibition of human MMPs by the inhibitors of general formulae Ia and Ib according to the invention

The target in experiment [2] is T2, recombinant catalytic domain of MMP-8 (Homo sapiens, UniProt P22894).
T2 construct: instead of the whole enzyme only its enzymatically active catalytic domain was cloned into E. coli; made in house; host or cells: E. coli
The experiment can be described thus: Quantitative fluorescence assay, inhibition of catalytic domain of MMP-8. The following applies: for MMP-8 inhibition with 10 μM: 10 μM inhibitor, no explicit Ki value since the dixon plot is non-linear.
Source text: Cloning and Expression of the Catalytic MMP-8 Domain
The catalytic MMP-8 domain was used as another test enzyme because it has a high degree of stability and is also available as an active enzyme and therefore needs not be activated, which is in consideration as one of the most frequent causes of error since the mercury compounds used for the activation often interfere with the test system and/or the enzyme and in this way can falsify the measuring results. The cloning strategy was directed towards the circumstance that instead of the whole enzyme only its enzymatically active catalytic domain was cloned into E. coli.
The cloning and expression of the recombinant catalytic MMP-8 domain was carried out in accordance with the statements made by SCHNIERER et al. (Schnierer S., Kleine T., Gote T., Hillemann A., Knäuper V., Tschesche H.: The recombinant catalytic domain of human neutrophil collagenase lacks type I collagen substrate specificity. Biochem Biophys Res Comm (1993), vol. 191, No. 2, 319-326).
as §1, §2
(§4) 2 μl inhibitor dissolved in DMSO, or DMSO alone (non-inhibitory approach) 4 μl enzyme (MMP-2 or MMP-9 or catalytic domain of MMP-8)
(§5) 5 min. preliminary incubation of the enzyme-inhibitor mixture at room temperature while stirring start of the reaction with 10 μl substrate dissolved in DMSO recording of the time-sensitive fluorescence increase over a period of 2 min.
as §3

A further experiment concerns the target T3, MMP-2 (gelatinase) (Homo sapiens, UniProt P08253).
T3 construct: endogenous in cells; host or cells: human dermal fibroblasts (secreted into culture medium)
T3 sequence (P08253 110-660): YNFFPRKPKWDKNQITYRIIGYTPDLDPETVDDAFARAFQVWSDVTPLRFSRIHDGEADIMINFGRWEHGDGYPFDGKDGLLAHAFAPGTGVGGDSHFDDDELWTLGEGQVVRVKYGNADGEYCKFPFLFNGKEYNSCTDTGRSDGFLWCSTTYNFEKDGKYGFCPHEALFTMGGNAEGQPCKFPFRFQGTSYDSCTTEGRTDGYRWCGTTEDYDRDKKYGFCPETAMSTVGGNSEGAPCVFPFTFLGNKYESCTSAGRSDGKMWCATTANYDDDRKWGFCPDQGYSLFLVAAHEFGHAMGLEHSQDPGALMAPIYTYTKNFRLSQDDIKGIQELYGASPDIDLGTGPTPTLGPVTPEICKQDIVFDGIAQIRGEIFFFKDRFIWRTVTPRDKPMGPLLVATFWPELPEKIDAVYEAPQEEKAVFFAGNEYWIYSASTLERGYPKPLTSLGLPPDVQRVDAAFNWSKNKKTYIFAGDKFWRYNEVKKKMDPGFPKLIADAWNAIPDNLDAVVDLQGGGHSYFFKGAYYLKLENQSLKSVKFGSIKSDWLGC
The experiment can be described thus: Quantitative fluorescence assay, inhibition of MMP-2. As to conditions: 10 μM inhibitor; no explicit Ki value since the dixon plot is non-linear. On the procedure: Inhibition of the Matrix Metalloproteinase-2 (MMP-2)
MMP-2 (gelatinase) is supplied by cultivated dermal fibroblasts to the culture medium in considerable amounts and is thus easily accessible.
For this purpose, human dermal fibroblasts are obtained according to established standard methods and cultivated and the cell-free culture supernatant is treated with trypsin. Trypsin is then inactivated with a specific inhibitor (TLCK) and active MMP-2 is partially purified by affinity chromatography on gelatin sepharose and subsequent gel filtration on sepharose. MMP-2 was identified and characterized by the availability of a commercial immunoassay.
as §1, §2, §4, §5, §3

The target of another experiment is T4, MMP-9 (Homo sapiens, UniProt P14780).
T4 construct: from tissue; host or cells: human buffy coat (blood leukocytes)
The experiment can be described thus: Quantitative fluorescence assay, inhibition of MMP-9. The following applies: for Ki: DIXON method; for MMP-9 inhibition with 10 μM: 10 μM inhibitor, no explicit Ki value since the dixon plot is non-linear. On the procedure:
Preparation of the Human Collagenase MMP-9
Native MMP-9 was obtained reproducibly and with good yield and purity from human Buffy Coat. For this purpose, Buffy Coat is brought to a final concentration of 0,4% using 10% (v/v) triton X-100, shaken on ice for 30 min. and then 1 vol. double binding buffer (40 mM Tris-HCl, pH 7.5, 10 mM CaCl2, 1 M NaCl, 0.2% (v/v) triton X-100) is added and shaking on ice is continued for another 30 min.
The solution is centrifuged off at 16,000 rpm on an SS-34 rotor at 4° C. for 15 min. and filtered on glass wool. The filtrate is batched with gelatin agarose equilibrated with binding buffer and shaken on ice for 1 hour.
The charged gelatin agarose is transferred to a column and rinsed in protein-free manner using at least 10 vol. binding buffer. The bound MMP-9 is eluted with 2 gel volumes binding buffer plus 5% (v/v) DMSO.
For an exchange of buffers and simultaneous separation of minor MMP-2 contaminations the eluate can be separated on sephadex G-75 by means of gel filtration. Buffer I (20 mM Tris-HCl, pH 7.5, 5 mM CaCl2, 100mM NaCl, 0.1% (v/v) triton X-100) is used for this purpose.
The resulting eluate contains MMP-9 in the three known configurations: monomer, homodimer, heterodimer. The purity of the enzyme is about 90%, the rest of the foreign proteins being fibronectin and extremely small amounts of TIMPs.
The latent enzyme is activated by incubation at 37° C. using 1/100 vol. trypsin (10 mg/ml), for 30-60 min. Trypsin is inhibited by adding 1 mM PMSF or with a specific inhibitor (TLCK).
as §1
as §2, with “A certain specificity of the test to matrix metalloproteinases follows from the amino acid sequence-Pro-Leu-Gly-Leu-in the substrate, on the one hand, and from the select incubation conditions, on the other hand. Matrix metalloproteinases cleave the substrate at the Gly-Leu bond.” left out, “Three series of measurements using a different substrate concentration were made for each tested inhibitor.” left out, “axis). […]” for “axis).”
5 min. preliminary incubation of the enzyme-inhibitor mixture at room temperature while stirring start of the reaction with 10 μl substrate dissolved in DMSO recording of the time-sensitive fluorescence increase over a period of 2 min. […]

T2 sequence (P22894 100-262 limits assumed): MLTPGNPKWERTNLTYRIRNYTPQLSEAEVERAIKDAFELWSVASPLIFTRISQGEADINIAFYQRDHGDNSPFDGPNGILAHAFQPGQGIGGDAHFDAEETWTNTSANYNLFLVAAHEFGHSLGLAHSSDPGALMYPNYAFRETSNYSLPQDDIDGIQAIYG
T4 sequence (P14780 107-707 limits assumed): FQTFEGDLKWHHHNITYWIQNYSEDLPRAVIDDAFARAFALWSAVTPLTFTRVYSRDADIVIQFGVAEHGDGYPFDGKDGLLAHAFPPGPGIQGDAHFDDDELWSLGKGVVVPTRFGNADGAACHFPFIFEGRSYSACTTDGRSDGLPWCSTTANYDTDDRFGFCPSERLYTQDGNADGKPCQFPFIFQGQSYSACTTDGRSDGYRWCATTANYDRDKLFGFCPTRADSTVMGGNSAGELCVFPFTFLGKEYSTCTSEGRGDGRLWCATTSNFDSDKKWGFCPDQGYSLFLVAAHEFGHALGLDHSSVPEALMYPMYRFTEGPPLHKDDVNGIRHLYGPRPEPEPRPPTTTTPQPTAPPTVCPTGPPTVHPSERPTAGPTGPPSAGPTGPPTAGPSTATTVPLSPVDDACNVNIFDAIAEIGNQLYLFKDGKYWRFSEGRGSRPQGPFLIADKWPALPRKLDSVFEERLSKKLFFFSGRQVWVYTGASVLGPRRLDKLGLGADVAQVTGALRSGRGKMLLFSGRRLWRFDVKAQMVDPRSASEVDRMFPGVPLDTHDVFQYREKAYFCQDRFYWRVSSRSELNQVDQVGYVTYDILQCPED

For the compound `O=c1c2ccccc2nc2n1C[C@H](CS)S2` (racemic) [Example 1, (R,S)-2-Mercaptomethyl-2,3-dihydro-5H-thiazolo(2,3-b]-quinazoline-5-one], in experiment [1] (2.5 μM inhibitor, no explicit Ki value since the dixon plot is non-linear), the “MT1-MMP inhibition with 2.5 μM” value came to 50% inhi-. Also, the “MMP-8 inhibition with 10 μM” value in experiment [2] is 80%. Also, the “MMP-2 inhibition with 10 μM” value at MMP-2 (gelatinase) was 70%.

For the compound `C[C@]1(CS)Cn2c(nc3ccccc3c2=O)S1` (racemic) [Example 2, (R,S)-2-mercaptomethyl-2-methyl-2,3-dihydro-5H-thiazolo[2,3-b]quinazoline-5-one], the Ki in experiment [1] was determined as 4 µM; at MMP-9 it was 1 µM. The “MMP-8 inhibition with 10 μM” value in experiment [2] is reported as 85%. For the same compound, the “MMP-2 inhibition with 10 μM” value on MMP-2 (gelatinase) was found to be 50%.

With `O=C(O)c1ccc2c(=O)n3c(nc2c1)S[C@@H](CS)C3` (racemic) [Example 3, (R,S)-8-carboxy-2-mercaptomethyl-2,3-dihydro-5H-thiazolo [2,3-b]quinazoline-5-one], the Ki in experiment [1] was 21 µM; on MMP-9, 15 µM; in experiment [2] (DIXON method) it was 24 µM. Moreover, the “MMP-2 inhibition with 10 μM” value on MMP-2 (gelatinase) was 25%.

Consider `O=c1c2ccccc2nc2n1[C@H](CS)CS2` (racemic) [Example 4, (R,S)-3-mercaptomethyl-2,3-dihydro-5H-thiazolo[2,3-b]quinazoline-5-one], for which the inhibitory constant (Ki) in experiment [1] turned out to be 55 µM. For the same compound, on MMP-9, the “MMP-9 inhibition with 10 μM” value was 75%. The “MMP-8 inhibition with 10 μM” value in experiment [2] was determined as 25%. The “MMP-2 inhibition with 10 μM” value on MMP-2 (gelatinase) stood at 50%.

Take `O=c1c2ccc(Cl)cc2nc2n1C[C@H](CS)S2` (racemic) [Example 5, (R,S)-8-chloro-2-mercaptomethyl-2,3-dihydro-5H-thiazolo(2,3-b]quinazoline-5-one]: the “MT1-MMP inhibition with 10 μM” value in experiment [1] (10 μM inhibitor, no explicit Ki value since the dixon plot is non-linear) is reported as 85%. Also, the “MMP-9 inhibition with 10 μM” value on MMP-9 worked out at 85%. Besides, the “MMP-8 inhibition with 10 μM” value in experiment [2] stood at 90%. The “MMP-2 inhibition with 10 μM” value on MMP-2 (gelatinase) is 80%.
